# Measured values as given in paper PMC6911004, “Fragment-based screening identifies molecules targeting the substrate-binding ankyrin repeat domains of tankyrase” (Scientific Reports, 2019).
# Molecular target: T1, TNKS2 ARC4 aromatic glycine sandwich (YY536/569AA) (Homo sapiens, UniProt Q9H2K2, Y536A/Y569A)
# T1 construct: TNKS2 ARC4 (488–649); His6-GST; made in house; host or cells: E. coli BL21-CodonPlus (DE3)-RIL
# Assay: T2 relaxation-edited NMR with mutant ARC
# Assay type: binding
# From the text: We used three previously designed TNKS2 ARC4 mutant variants[4] to explore potential binding determinants for fragment 9. A WFE591/593/598AAA triple-mutation abrogates three key residues in the “arginine cradle”; YY536/569AA truncates two tyrosine residues that form the “glycine sandwich”, and L560W introduces a bulky residue into the “central patch” that sterically clashes with the TBM peptide (see Fig. 5A,B for locations of the mutated residues). We tested binding of compound 9 to the wild-type and mutant ARCs by ligand-observed NMR, using the relaxation-edited assay (Fig. 5C, Table 4). […] Binding was impaired but not abolished for the “central patch” mutant variant (L560W).
# Fragments were dispensed in duplicate into a 384-well plate (250 nL, 100 mM stock in DMSO). […] Solutions were transferred to 1.7 mm NMR tubes using a Gilson liquid handling system. ^1H NMR spectra were recorded, with the DMSO and water signals dampened. […] The average integral for all peaks between 6.0–10.0 ppm was calculated, and the difference between compound-only and compound-plus-protein samples was compared. […] For competitive experiments, 3BP2 16-mer peptide (100 μM) was added, and the spectra were recorded and processed as above. The variability in signal reduction in the relaxation-edited experiment was previously determined as approximately ± 10% (Liu et al., unpublished observations).
smiles,measurement,value
O=C(NCc1ccco1)c1ccc2nccnc2c1 [compound 9],T2 relaxation-edited: reduction of signal integrals,0%
